# In patent US20040028749A1, “Treating inflammation and associated complications” (priority 2000, published 2004):
# B1: catalase: hydrogen peroxide scavenger (protein, UniProt P00432 2-527, looked up)
# Catalase: ADNRDPASDQMKHWKEQRAAQKPDVLTTGGGNPVGDKLNSLTVGPRGPLLVQDVVFTDEMAHFDRERIPERVVHAKGAGAFGYFEVTHDITRYSKAKVFEHIGKRTPIAVRFSTVAGESGSADTVRDPRGFAVKFYTEDGNWDLVGNNTPIFFIRDALLFPSFIHSQKRNPQTHLKDPDMVWDFWSLRPESLHQVSFLFSDRGIPDGHRHMNGYGSHTFKLVNANGEAVYCKFHYKTDQGIKNLSVEDAARLAHEDPDYGLRDLFNAIATGNYPSWTLYIQVMTFSEAEIFPFNPFDLTKVWPHGDYPLIPVGKLVLNRNPVNYFAEVEQLAFDPSNMPPGIEPSPDKMLQGRLFAYPDTHRHRLGPNYLQIPVNCPYRARVANYQRDGPMCMMDNQGGAPNYYPNSFSAPEHQPSALEHRTHFSGDVQRFNSANDDNVTQVRTFYLKVLNEEQRKRLCENIAGHLKDAQLFIQKKAVKNFSDVHPEYGSRIQALLDKYNEEKPKNAVHTYVQHGSHLSAREKANL
# What was measured:
# [1] = test system: Human RBCs; assay: OSCN^−/OCN^− effects on intact RBC glutathione, enzymes and hemolysis; format: cell-based; conditions: lysates and membranes of RBCs exposed to 100 μM OSCN^−/OCN^−; 10 mM DTT
# Procedure: After 30 minutes, cells were pelleted by centrifugation at 2000×g for 3 minutes and washed three times in ice-cold HEPES/Hanks' (H & H) buffer. […] RBC lysates and membranes were then prepared by hypotonic lysis and assayed for glutathione and glyceraldehyde-3-phosphate dehydrogenase (GAPDH), glutathione-S-transferase (GST), and lactate dehydrogenase (LDH) activity as described by Beutler (see Beutler (1974) Red Cell Metabolism A Manual of Biochemical Methods Grune and Stratton, Inc., Orlando, Fla.) and for ATPase activity as described below. Hemolysates were incubated for an additional 15 minute with or without 10 mM DTT and reassayed for GAPDH, GST, and ATPases.
# Intracellular levels of the SH-containing oxidant scavenger glutathione were assayed. In addition, the activities of three enzymes, GST, GAPDH, and membrane ATPases, which are known to be vulnerable to SH-oxidation-based inactivation, as well as LDH which is not prone to such inactivation were assayed.
# [2] = intranasal 1 mM SCN^−, 1 mM Br^− or 100 μM NO2^−
# Procedure: The following experiment is performed to determine if by directly manipulating the relative substrate halide composition of the intrabronchial luminal contents, the severity of the resulting EPO-mediated oxidative damage and so the severity of the induced pathologies can be influenced. […] From the day before initiation of aerosol ovalbumin challenge, four groups of guinea pigs (n=15) are subjected to intranasal instillation of 300 μL of PBS (100 mM Cl^−), PBS+1 mM NaSCN, PBS+1 mM NaBr, or PBS+100 μmol NaNO2 in each nostril. Intranasal instillation is performed every 6 hours until the time of analysis. The numbers of animals in each group is determined from power calculations assuming unpaired design. A group size of 15 animals per group allows for detecting a change in Br—Y, PC50, and histologic severity index amongst the OVA-challenged animal of ≧125% of the S.D. of the experimental groups with 90% power, P<0.05.
# As for Section VI, Example 10, pulmonary functions, and chloro-, bromo-, and NO2—Y in BAL and whole lung homogenates are determined. […] Multiple linear regression is used to determine factors responsible for changes in PC50 or histologic severity of airway damage. PC50 or histologic severity is treated as a continuous variable and correlated Br—Y and NO2—Y levels in BAL and whole lung by multiple regression.
# [3] = test system: RBC ATPases; assay: Oxidant inactivation of RBC membrane ATPase activity; format: biochemical, human; conditions: even at 1 mM
# Text: Membrane preparations rather than intact RBC were used to allow all oxidants equal access to intra- and extracellular membrane components.
# [4] = test system: S. mansoni schistosomules; assay: Toxicity of hypohalous acids for schistosomules; format: cell-based; conditions: for toxicity for the parasite relative to host cells: schistosomules vs mammalian cells; for LD50 for schistosomules: two hours exposure
# Procedure: (§1) To determine how generation of HOSCN subserves the physiological function of EOs, i.e., to destroy tissue-invasive parasites, the following experiment was performed. Reagent grade HOSCN was generated by (i) adding human EPO (10 μg/mL) and 1 mM NaSCN to Hank's buffer, (ii) adding five 100 μM boluses of H2O2 at 3 minute intervals, (iii) adding 20 μg/mL of catalase to consume unreacted H2O2, and (iv) removing protein by filtration through a PM-10 membrane (Amicon). HOSCN was then assayed by TNB titration. Mammalian cells used included cultured human and porcine aortic endothelium, rat cardiac myocytes, P338D1 murine lymphoma, and RBCs. Freshly transformed S. mansoni schistosomules (obtained from James Kazura at Case Western University) were also used. Both were exposed to reagent HOSCN for two hours, then assayed for cytotoxicity by (i) ^51Cr release, (ii) hemolysis (mammalian cells) or (iii) light microscopy observations of granularity, lack of motion, and methylene blue dye exclusion (somules). Results in Table 1 indicate that HOSCN killed both schistosomules and host cells. Whereas HOCl and HOBr were equally toxic for host cells and somules, HOSCN was 10-15 times more toxic for the parasite.
# [5] = test system: mammalian cells; assay: Cytotoxicity of hypohalous acids for mammalian cells (51Cr release, hemolysis); format: cell-based; conditions: two hours exposure
# Procedure: as §1
# [6] = test system: human EOs; assay: EO-mediated nitration and bromination of HPA; format: cell-based; conditions: PMA-activated EOs; for EO-mediated nitration of HPA: 50 μM NO2^−, 100 μM Br^−
# Procedure: (§2) These studies were performed in the presence of CO2 (5% gas phase) and […] the medium (4.2 mM) to mimic a biologically relevant situation. Leukocytes ([…]) were incubated at 37° C. under 95% air, 5% CO2, in Medium A (Ca^2+/Mg^2+/phenol-free HBSS; Life Technologies, (Gaithersburg, Md.) supplemented with 100 μM NaBr, 50 μM L-arginine, and 200 μM DTPA, pH 7.4 final) in the absence or presence of NaNO2 (0<50 μM, as indicated in the figure legends). […] Cells were activated by addition of PMA (200 nM) and incubated for either 1 hour or the indicated time interval. In some experiments, EOs were activated in the presence of an exogenous NO source by addition of PAPA NONOate (Alexis) for 1 minute following PMA addition. Rates of NO flux were determined spectrophotometrically by reaction of NO with oxyhemoglobin as described in Baek et al. (Baek et al. (1993) J Biol Chem 268:21120) under the identical conditions used for experiments, but in the absence of any added cells. To maintain a final pH of 7.4 during experiments with PAPA NONOate, incubations were performed in Medium B (Medium A containing only 100 mM NaCl and supplemented with 20 mM sodium phosphate, pH 7.4). […] In some cases, leukocyte reaction mixtures also contained one of the following: 1 mM NaN3, 10 mM 3-aminotriazole (Atz), 300 nM catalase (Cat), 300 nM heat-inactivated catalase (hiCat), 10 μg/ml superoxide dismutase (SOD), 1 mM methionine (Met), or 1 mM N^α-acetyl lysine.
# (§3) NO2—Y production by isolated EOs was quantified by reversed phase HPLC with photodiode array detection (see Wu et al. (1999) J Biol Chem 274:25933). […] The nitrated (NO2-HPA; 3-(4-hydroxy-3-nitrophenyl)propanoic acid), brominated (Br-HPA; 3-(3-bromo-4-hydroxyphenyl)propanoic acid), and chlorinated (Cl-HPA; 3-(3-chloro-4-hydroxyphenyl)propanoic acid) products of the tyrosine analog, HPA, were routinely quantified by reversed phase HPLC with electrochemical (coulometric) detection on an ESA CoulArray HPLC (Cambridge, Mass.) equipped with UV detector and electrochemical cells (eight channels) (Wu et al. (1999) J Biol Chem 274:25933). […] Authentic standards of NO2-HPA, Br-HPA, and Cl-HPA were prepared by reaction of HPA with a molar equivalent of ONOO^−, HOBr, or HOCl, respectively.
# Use of this low molecular mass surrogate for a protein-bound tyrosine residue permitted more facile quantification of the relative capacity of EOs to promote aromatic nitration and halogenation reactions of phenolic targets.
# [7] = test system: human EOs; assay: NO2—Y formation by activated human EOs; format: cell-based; conditions: agonist 100 nM, exogenous NO2^−
# Procedure: as §2, with “HBSS;” for “HBSS; Life Technologies, (Gaithersburg, Md.) supplemented with 100 μM NaBr, 50 μM L-arginine, and 200 μM DTPA, pH 7.4 final) in the absence or presence of NaNO2 (0<50 μM, as indicated in the figure legends).”, “NO2—Y production by isolated EOs was quantified by reversed phase HPLC with photodiode array detection (see Wu et al. (1999) J Biol Chem 274:25933). […]” for “In some cases, leukocyte reaction mixtures also contained one of the following: 1 mM NaN3, 10 mM 3-aminotriazole (Atz), 300 nM catalase (Cat), 300 nM heat-inactivated catalase (hiCat), 10 μg/ml superoxide dismutase (SOD), 1 mM methionine (Met), or 1 mM N^α-acetyl lysine.”
# [8] = target: T1, EPO (Homo sapiens, UniProt P11678); conditions: physiologic concentrations (20-120 μM) of SCN^−; 100 μM Br, 100 mM Cl^−
# Text: All other reagents were obtained from Sigma Chemical Co. (St. Louis, Mo.).
# [9] = test system: LPO, or EPO; conditions: 100 μM SCN^−, LPO or EPO present
# [10] = wild type mouse
# Procedure: Mice were sensitized by intranasal instillation of Aspergillus and aeroallogen challenged one month later with aerosol saline (control) or Aspergillus (antigen challenged). At 2 days before the one-month aeroallogen challenge, one group of antigen-challenged animals received i.p. 0.5 mL of 0.1% KSCN and 0.1% KSCN in drinking water. Three days after the aeroallogen challenge, both groups were challenged with intranasal inoculums of Candida and 6 hours later subjected to BAL and the content of supernatant protein Br—Y determined using stable isotope dilution GC-MS.
# [11] = test system: EPO or LPO; conditions: O2^.− generating system
# Procedure: NO decay was determined in phosphate buffer in the absence versus presence of plasma levels of halides using an NO-selective electrode. NO-saturated buffer was added to a continuously stirred reaction mixture.
# [12] = SCN^− supplementation
# Procedure: Four experimental groups, each comprised of 15 guinea pigs are utilized for these studies.
# The first group is the control and receives KCl in lieu of KClO4 to control for the effect of potassium. […] Perchlorate treatments are initiated three days prior to OVA aerosol challenges and maintained throughout the experimental period until the time of analysis. Specimens are analyzed according to the protocol described. The experimental groups are compared using an appropriate statistical method (i.e., parametric or non-parametric) based upon ANOVA.
# All four groups are then pooled to determine correlations between (i) methacholine challenge PC50 and (ii) BAL and whole lung Br—Y and NO2—Y levels. Correlations were also determined between (i) histologic severity and (ii) BAL and/or whole lung Br—Y and NO2—Y levels.
# [13] = test system: EPO
# Procedure: The EPO/NO2^−/H2O2 system generates reactive nitrogen species that generates bioactive eicosanoids, e.g. hydroxyeicosatetraenoic acids (HETEs) from unilamellar vesicles comprised of 1-palmitoyl-2-arachidonyl-sn-glycero-3-phosphocholine (PAPC). […] Reaction mixtures consisting of 0.8 mg lipid/mL PAPC, 60 nM EPO, 100 μM NO2^−, 100 ng/mL glucose oxidase, 100 μg/mL glucose were incubated for 2 hours at 37° C. HETEs were analyzed by lipid extraction and HPLC with on-line electrospray ionization tandem mass spectometry (LC/MS/MS).
# [14] = target: T1, EPO
# Procedure: To determine the relative time courses of HOSCN and cyanate generation, H2O2 was added to a reaction mixture containing phosphate buffered saline (PBS) with 1 mM KSCN, pH 7.4, and 0.4 μM EPO. H2O2 was added by continuous infusion at 50 μM/minute for 20 minutes to simulate the continuous generation of H2O2 by the respiratory burst of an activated EO. An aliquot was (i) removed from the reaction mixture prior to and at various time intervals after initiating addition of H2O2, (ii) supplemented with 40 μg/mL catalase to consume unreacted H2O2, and (iii) placed on ice until subsequent assay of oxidants and cyanate as described.
# H2O2 was continuously infused at 50 μM/minute for 20 minutes, simulating the continuous generation of H2O2 by the respiratory burst of an activated EO. Aliquots were removed from the reaction mixture at one-minute intervals and catalase was added to destroy excess unreacted H2O2 prior to assay of TNB-reactive substances and cyanate.
# [15] = target: MPO (Homo sapiens, UniProt P05164); conditions: pre-incubation of the enzyme solution
# Procedure: Initial experiments utilized an NO-selective electrode (ISO-NO Mark II, World Precision Instruments, Sarasota, Fla.) to determine whether NO serves as a general substrate for peroxidases. Reactions were performed under conditions where peroxidases were present in catalytic amounts Experiments were performed at 25° C. by immersing the electrode in 10 mL of 0.2 M sodium phosphate buffer, pH 7.0, under air. NO was added to continuously stirred buffer solution from an NO-saturated stock and the rise and fall in NO concentration was continuously monitored using a chart recorder. To determine the effect of H202 and peroxidases on NO levels during steady state catalysis, 10 μl H202 (100 μM final) and 50 μL enzyme (150 nM final) were added to the reaction mixture. Where indicated, solutions were supplemented with NaCl (100 mM) and/or a cell-free O2^.−-generating system comprised of lumazine (0.4 mm) and bovine milk xanthine oxidase (XO, Boehringer Mannheim).
# To examine the potential physiological significance of these observations, the effect of additional substrates on peroxidase-catalyzed consumption of NO was examined. MPO was initially used as a model peroxidase because of its abundance at sites of leukocyte recruitment and activation during inflammation and its well-known use of the abundant halide Cl^− as substrate.
# [16] = test system: activated EOs; assay: NO2-HPA formation by activated EOs with exogenous NO donor; format: cell-based, human
# Procedure: as §2, §3
# [17] = test system: activated human EOs; conditions: 5 mM azide
# Procedure: Purified EOs were washed, suspended at 4×10^6/mL in a modified Hank's balanced salt solution composed of 5.3 mM KCl, 138 mM NaCl, 0.4 mM potassium phosphate, 5.3 mM sodium phosphate, 5.5 mM D-glucose, 1.3 mM CaCl2, and 0.5 mM MgCl2, pH 7.4 supplemented with 1 mM KSCN. EOs were divided into three groups that were supplemented with (i) nothing (control), (ii)1 μg/mL phorbol 12-myristate 13-acetate (PMA), or (iii) 1 μg/mL PMA and 5 mM azide. EOs were then incubated at 37° C. for 60 minutes in capless 5 mL round-bottom tubes. The tubes were vortexed every 15 minutes to aid oxygenation. After the incubation, the samples were centrifuged for 10 minutes, 1000×g at 4° C. The supernatants were placed in Microcon concentrators (Amicon, Mass.) with membranes of 3000 Dalton molecular weight cut off and centrifuged for 30 minutes, 13,000×g at 4° C. to remove degranulated proteins. The filtrates were assayed for HOSCN and cyanate quantities.
# As a gauge of the potential physiologic relevance of the above findings—all made with a purified reagent system—intact, activated human EOs were examined to determine whether HOSCN and OCN^− are generated. […]
# [18] = high rates of NO flux (>2 μM/min)
# [19] = low rates of NO flux (<2 μM/min)
# T1 sequence (P11678 251-715 limits assumed): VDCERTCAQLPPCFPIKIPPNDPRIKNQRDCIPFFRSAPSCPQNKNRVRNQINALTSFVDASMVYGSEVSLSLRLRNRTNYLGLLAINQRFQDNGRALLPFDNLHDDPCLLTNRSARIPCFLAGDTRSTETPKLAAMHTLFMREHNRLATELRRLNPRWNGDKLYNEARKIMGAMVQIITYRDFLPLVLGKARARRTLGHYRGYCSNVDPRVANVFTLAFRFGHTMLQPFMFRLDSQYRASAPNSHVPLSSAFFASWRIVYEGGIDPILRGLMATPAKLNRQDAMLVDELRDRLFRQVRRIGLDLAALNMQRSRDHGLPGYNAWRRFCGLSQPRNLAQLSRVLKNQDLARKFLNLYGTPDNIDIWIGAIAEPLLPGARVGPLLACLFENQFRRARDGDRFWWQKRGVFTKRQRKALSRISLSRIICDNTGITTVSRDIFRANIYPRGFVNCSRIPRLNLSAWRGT
# T1 sequence (P11678 140-250 limits assumed): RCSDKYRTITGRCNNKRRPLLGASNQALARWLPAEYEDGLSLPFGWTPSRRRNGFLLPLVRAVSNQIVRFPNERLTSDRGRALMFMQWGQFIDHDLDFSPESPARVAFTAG
# MPO, sequence (P05164 279-745 limits assumed): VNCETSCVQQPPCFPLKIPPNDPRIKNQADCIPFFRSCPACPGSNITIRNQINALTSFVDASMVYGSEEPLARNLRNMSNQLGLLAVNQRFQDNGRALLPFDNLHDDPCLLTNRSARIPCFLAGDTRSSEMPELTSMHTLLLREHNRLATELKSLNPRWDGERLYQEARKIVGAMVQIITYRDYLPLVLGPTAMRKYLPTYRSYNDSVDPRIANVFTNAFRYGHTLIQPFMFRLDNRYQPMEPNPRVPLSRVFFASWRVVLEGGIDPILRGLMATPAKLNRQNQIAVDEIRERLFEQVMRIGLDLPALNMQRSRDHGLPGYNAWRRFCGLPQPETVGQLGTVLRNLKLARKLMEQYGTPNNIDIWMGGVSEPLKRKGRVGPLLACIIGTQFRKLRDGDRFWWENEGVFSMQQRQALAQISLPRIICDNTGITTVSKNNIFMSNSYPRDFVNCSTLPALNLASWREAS
# MPO, sequence (P05164 165-273 limits assumed): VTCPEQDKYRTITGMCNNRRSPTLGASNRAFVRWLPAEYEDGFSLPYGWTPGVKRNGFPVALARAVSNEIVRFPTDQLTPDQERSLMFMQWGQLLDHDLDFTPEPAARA
molecule,measurement,setting,value
"O[C@H](CS)[C@H](O)CS (racemic) [DTT, dithiothreitol]","GST, GAPDH and ATPase activity after OSCN^−/OCN^− exposure",[1],completely restored the activities of all three enzymes
"Br [Br^−, bromide]",levels of Br—Y and NO2—Y and severity of resulting asthma,[2],increase
"OO [H2O2, hydrogen peroxide]",inactivation of RBC ATPases,[3],failed to inactivate ATPases
"OBr [HOBr, hypobromous acid]",toxicity for the parasite relative to host cells,[4],equally toxic
same,LD50 for schistosomules,[4],10 µM
same,LD50 for mammalian cells,[5],10 to 33 µM
"OCl [HOCI, hypochlorous acid]",toxicity for the parasite relative to host cells,[4],equally toxic
same,LD50 for schistosomules,[4],10 µM
same,LD50 for mammalian cells,[5],10 to 33 µM
N#CSO [HOSCN],toxicity for the parasite relative to host cells,[4],10-15 times
same,LD50 for schistosomules,[4],20 µM
same,LD50 for mammalian cells,[5],200 to 300 µM
"CC(=O)N[C@@H](CCCCN)C(=O)O [N-acetyl lysine, N^α-acetyl lysine]",cell-dependent bromination of HPA,[6],lack of inhibition
CSCC[C@H](NC=O)C(=O)N[C@@H](CC(C)C)C(=O)N[C@@H](Cc1ccccc1)C(=O)O [N-formyl-methionyl-leucyl-phenylalanine],"NO2—Y levels produced, less than with PMA-stimulated EOs",[7],8 fold
"O=NO [NO2^−, nitrite]",levels of Br—Y and NO2—Y and severity of resulting asthma,[2],increase
"N#CS [SCN^−, thiocyanate]",EPO production of HOBr,[8],blocked
same,relaxation of preconstricted bronchial rings in response to NO,[9],do so when high physiologic concentrations of SCN^− are added
same,levels of Br—Y and NO2—Y and severity of resulting asthma,[2],ameliorates
same,BrY reduced from w.t. antigen-challenged,[10]; SCN supplemented,BrY 86% reduced
same,Lavage fluid bromotyrosine,"[10]; antigen challenge, 0.1% KSCN i.p. and in drinking water",196 ± 103 μmol Br—Y/μmol Y
same,mean lung Br—Y/Y,"NaSCN i.p. and 0.2% in drinking water, OVA challenge",0.93 mmol/mol
same,rise of Br—Y/Y after OVA challenge,dietary supplementation with SCN^− prior to OVA challenge,completely abrogated
same,peroxidase-mediated NO consumption,[11],attenuation/inhibition of peroxidase-mediated NO consumption
same,"Br—Y and NO2—Y levels, functional and histologic pulmonary pathology",[12],will reduce
same,HETE generation from PAPC vesicles by EPO/SCN^−/H2O2 system,[13]; 100 μM SCN^−,no detectable HETEs
same,HETE generation from PAPC vesicles by EPO/NO2^−/H2O2 system,[13]; physiological concentration of SCN^−,severely attenuated
"[N-]=[N+]=[N-].[Na+] [azide, sodium azide]",EO-mediated nitration of HPA,[6],inhibited
same,generation of both HOSCN and OCN^−,[14]; azide 1 mM,nearly completely blocked
same,HOSCN levels at plateau stage of progression curve,[14]; azide added during H2O2 infusion,abrupt collapse of HOSCN levels
same,NO consumption by MPO,[15],prevented
same,NO2-HPA formation,[16]; [18],increasingly less sensitive to inhibition
same,NO2-HPA formation,[16]; [19],inhibited
same,PMA-stimulated generation of HOSCN and OCN^−,[17],severely attenuated
CSCC[C@H](N)C(=O)O [methionine],EO-mediated nitration of HPA,[6],inability of the HOBr scavenger methionine to affect nitration
B1,EO-mediated nitration of HPA,[6],inhibited
same,NO2-HPA formation,[16]; [18],increasingly less sensitive to inhibition
same,NO2-HPA formation,[16]; [19],significantly attenuated
